One experiment has as its target PI3K-Delta (Homo sapiens, UniProt O00329). Nature of the experiment: PI3K HTRF assay (PI3K Delta). The format is biochemical. The following applies: PI3K-Delta 1.5 nM, 80 μM ATP, 10 μM PIP2 final, read-out: mean pIC50 in the PI3K Delta assay (converted). The method, then:
Biological Data PI3K HTRF Assay
The binding of compounds to PI3K-alpha/beta/delta/gamma is determined by homogeneous time resolved fluorescence (HTRF) assays as follows;
Briefly, solid compound is dissolved in 100% DMSO at a concentration of 2 mM. Dilutions are prepared in 100% DMSO using a 1 in 4 serial step dilution. The dilutions are transferred to black low volume Greiner assay plates ensuring that the DMSO concentration is constant across the plate at 1% (0.1 ul/well).
PI3K Reaction Buffer (contains 50 mM HEPES pH7.0 (NaOH), 150 mM NaCl, 10 mM MgCl2, 2.3 mM sodium cholate, 10 μM CHAPS made up in milliQ water). Fresh DTT is added at a final concentration of 1 mM on the day of use. Wortmannin at a concentration sufficient to produce 100% inhibition (8.33e-6 M) is added to column 18 of compound plates.
Enzyme solutions: 1× PI3K assay Buffer containing: • 550 pM PI3K-Alpha enzyme (275 pM final assay concentration) • 800 pM PI3K-Beta enzyme (400 pM final assay concentration) • 3 nM PI3K-Delta enzyme (1.5 nM final assay concentration) • 10 nM PI3K-Gamma enzyme (5 nM final assay concentration)
These concentrations are optimal to achieve a signal:background of between 1.5-4.5. The enzyme solution is added to columns 1-24 (3 ul/well) and plates are incubated for 15 minutes at room temperature.
Substrate solution: 1× PI3K assay buffer containing: • PI3K-Alpha: 500 μM ATP, 20 μM PIP2 and 120 nM biotin-PIP3. (Final assay concentrations are 250 μM ATP, 10 μM PIP2 (both at Km) and 40 nM biotin-PIP3) • PI3K-Beta: 800 μM ATP, 20 μM PIP2 and 120 nM biotin-PIP3. (Final assay concentrations are 400 μM ATP, 10 μM PIP2 (both at Km) and 40 nM biotin-PIP3) • PI3K-Delta: […], 20 μM PIP2 and 120 nM biotin-PIP3. (Final assay concentrations are 80 μM ATP, 10 μM PIP2 (both at Km) and 40 nM biotin-PIP3) • PI3K-Gamma: 30 μM ATP, 20 μM PIP2 and 120 nM biotin-PIP3.
This is added to all wells and plates are incubated for 1 hour at room temperature.
Detection solution: PI3K Detection Buffer (contains 50 mM HEPES pH7.0 (HCl), 150 mM NaCl, 2.3 mM sodium cholate, 10 μM CHAPS, 240 mM potassium fluoride) containing 2 mM DTT (2× final concentration), 90 nM GRP-1 PH domain, 300 nM Streptavidin-APC and 24 nM Europium-anti-GST (6× final concentrations)
This is mixed left at room temperature (protected from light).
STOP solution: PI3K STOP Buffer (contains 50 mM HEPES pH7.0 (HCl), 150 mM NaCl, 2.3 mM sodium cholate, 10 μM CHAPS, 150 mM EDTA).
Detection solution is diluted 1:1 with STOP solution and added to all wells (3 ul/well). Plates are covered and incubated on the bench for 45-60 minutes. Plates are read on a PerkinElmer Envision, measuring TR-FRET between the complex formed between the GST-tagged PH domain and biotinylated PIP3 which both recruit fluorophores (Europium-labelled anti-GST & Strep-APC respectively). […], this complex is disrupted by the competitive action of non-biotinylated PIP3 (formed in the assay by the phosphorylation of PIP2 by the kinase & ATP). From this, the ratio of acceptor/donor was calculated (Aex=317 nm, Aem donor=615 nm, em acceptor=665 nm) and used for data analysis.
A general note: In TR-FRET formats the signal depends on donor and acceptor labels being close together.

Experiment [1] has as its system amphetamine-induced psychosis. The following applies: Law et al. 2012; cited from earlier work.

This is an account of results in patent US10793559B2, “Chemical compounds” (GlaxoSmithKline Intellectual Property Development Limited, priority 2016, dated 2020).

Chain of PI3K-Delta (O00329 whole entry): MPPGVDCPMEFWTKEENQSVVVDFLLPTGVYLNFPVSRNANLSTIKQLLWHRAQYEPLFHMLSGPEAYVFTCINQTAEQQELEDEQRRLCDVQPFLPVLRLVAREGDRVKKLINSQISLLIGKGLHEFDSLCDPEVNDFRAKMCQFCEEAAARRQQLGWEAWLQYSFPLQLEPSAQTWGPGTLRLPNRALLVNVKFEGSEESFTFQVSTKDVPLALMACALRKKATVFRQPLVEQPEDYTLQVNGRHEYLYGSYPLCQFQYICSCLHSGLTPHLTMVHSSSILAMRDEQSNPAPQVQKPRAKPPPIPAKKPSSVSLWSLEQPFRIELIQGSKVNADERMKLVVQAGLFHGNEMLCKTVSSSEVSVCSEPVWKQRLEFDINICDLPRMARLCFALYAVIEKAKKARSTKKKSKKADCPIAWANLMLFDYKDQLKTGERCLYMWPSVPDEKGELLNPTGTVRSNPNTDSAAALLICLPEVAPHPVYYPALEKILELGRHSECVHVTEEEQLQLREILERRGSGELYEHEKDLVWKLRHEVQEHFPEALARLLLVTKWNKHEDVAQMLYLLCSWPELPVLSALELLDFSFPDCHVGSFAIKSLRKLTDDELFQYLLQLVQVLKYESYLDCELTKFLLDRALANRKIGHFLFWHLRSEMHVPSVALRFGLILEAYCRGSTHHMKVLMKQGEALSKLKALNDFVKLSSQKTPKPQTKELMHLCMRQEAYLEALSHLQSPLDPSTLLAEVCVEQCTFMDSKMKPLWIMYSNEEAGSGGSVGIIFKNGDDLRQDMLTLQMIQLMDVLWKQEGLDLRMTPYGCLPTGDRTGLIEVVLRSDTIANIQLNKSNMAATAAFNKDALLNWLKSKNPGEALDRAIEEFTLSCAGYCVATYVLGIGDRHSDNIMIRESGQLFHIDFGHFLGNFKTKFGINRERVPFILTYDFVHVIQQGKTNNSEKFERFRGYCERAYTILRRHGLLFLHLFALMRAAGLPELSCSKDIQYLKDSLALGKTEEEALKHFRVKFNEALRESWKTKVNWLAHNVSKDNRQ
Chain of PI3K-Delta (P27986 whole entry partner): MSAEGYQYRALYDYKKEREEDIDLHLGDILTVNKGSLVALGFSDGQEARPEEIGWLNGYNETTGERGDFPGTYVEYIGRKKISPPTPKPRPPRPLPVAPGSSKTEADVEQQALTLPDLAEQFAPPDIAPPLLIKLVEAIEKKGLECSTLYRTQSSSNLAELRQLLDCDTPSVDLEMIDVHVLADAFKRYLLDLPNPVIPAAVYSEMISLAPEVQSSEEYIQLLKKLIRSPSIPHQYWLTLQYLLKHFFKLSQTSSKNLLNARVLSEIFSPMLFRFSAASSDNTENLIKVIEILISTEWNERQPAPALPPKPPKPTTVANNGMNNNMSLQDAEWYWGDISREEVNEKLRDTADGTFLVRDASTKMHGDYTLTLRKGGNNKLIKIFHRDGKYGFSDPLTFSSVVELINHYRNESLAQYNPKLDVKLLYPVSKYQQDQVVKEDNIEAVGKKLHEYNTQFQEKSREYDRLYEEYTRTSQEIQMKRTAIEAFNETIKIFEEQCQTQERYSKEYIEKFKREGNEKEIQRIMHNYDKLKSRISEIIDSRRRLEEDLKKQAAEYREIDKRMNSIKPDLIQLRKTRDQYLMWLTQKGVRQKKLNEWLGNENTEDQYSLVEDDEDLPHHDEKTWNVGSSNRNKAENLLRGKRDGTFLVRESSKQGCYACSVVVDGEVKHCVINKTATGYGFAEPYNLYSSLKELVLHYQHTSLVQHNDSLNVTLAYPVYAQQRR

As to `COc1ncc(N2CCOCC2)cc1S(=O)(=O)Nc1ccnc(-c2ccc(CN3C[C@@H](C)O[C@@H](C)C3)cc2F)c1` [Example 36, Rac-N-(2-(4-(((2S,6R)-2,6-dimethylmorpholino)methyl)-2-fluorophenyl)pyridin-4-yl)-2-methoxy-5-morpholinopyridine-3-sulfonamide], the IC50 at PI3K-Delta was at most 3.16 nM.

For the molecule `CCOc1ncc(N2CCOCC2)cc1S(=O)(=O)Nc1ccnc(-c2ccc(CN3C[C@@H](C)O[C@@H](C)C3)cc2F)c1` [Example 37, Rac-N-(2-(4-(((2S,6R)-2,6-dimethylmorpholino)methyl)-2-fluorophenyl)pyridin-4-yl)-2-ethoxy-5-morpholinopyridine-3-sulfonamide], on PI3K-Delta, the IC50 is at most 3.16 nM.

For the molecule `Cc1ccccc1-n1c(Cn2cnc3c(N)ncnc32)nc2cccc(C)c2c1=O` [IC87114], in experiment [1], the “efficacy in a mouse model of amphetamine-induced psychosis” value is listed as “remarkable efficacy”.
